Experimental data: paper PMC9428149, “Tackling recalcitrant Pseudomonas aeruginosa infections in critical illness via anti-virulence monotherapy” (Nature Communications, 2022)
Converted amounts (≈) assume the structure as drawn. Where two headings read alike, the source gives them in different places.

Key:
MvfR protein (MvfRC87) = biological target: T1, MvfR protein (MvfRC87) (Pseudomonas aeruginosa, UniProt Q9I4X0); assay type: binding; conditions: SPR
T1 construct: The MvfRC87 protein purified as in Xiao et. al., 2006; made in house
T1 sequence (Q9I4X0 87-332): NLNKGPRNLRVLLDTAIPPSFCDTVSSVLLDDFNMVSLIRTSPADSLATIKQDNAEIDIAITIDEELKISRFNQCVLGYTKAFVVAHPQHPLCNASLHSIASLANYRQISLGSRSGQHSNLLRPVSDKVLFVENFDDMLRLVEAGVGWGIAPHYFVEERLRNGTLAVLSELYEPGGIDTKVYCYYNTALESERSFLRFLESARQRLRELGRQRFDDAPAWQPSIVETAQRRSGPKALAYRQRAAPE
Procedure, shortened: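 MvfRC87 amine-coupled to a CM7 chip (3000–5000 RU) and binding measured by SPR. Double-reference-corrected responses 5 s before end of association plotted against concentration, for inhibitor alone and with native ligand PQS, compared with responses calculated for different binding sites.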

[1] = test system: pqsA promoter (PA14 PpqsA-GFPASV); assay: pqsA-GFP reporter expression; assay type: cell-based, Pseudomonas aeruginosa; conditions: Pseudomonas aeruginosa
[2] = test system: 16 MDR P. aeruginosa clinical isolates; assay: Pyocyanin production in MDR clinical isolates; conditions: Pseudomonas aeruginosa, 18 h, Control about 100, replicates
[3] = Solubility in iPBS pH 7.4 by HPLC; assay type: physicochemical; conditions: isotonic phosphate buffer (iPBS), aqueous with cosolvent or surfactant or cyclodextrin, kinetic from dmso stock; iPBS pH 7.4, HPLC; read-out: Solubility (M) in PBS
Procedure, shortened: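 Compounds from 10 mM DMSO stock shaken 4 h at room temperature in iPBS pH 7.4 (10 mM PBS, 2.7 mM KCl, 140 mM NaCl, 0.05% Tween), then filtered. Concentration measured by HPLC-UV against a known standard solution; solubility given as ratio of compound in test solution to standard.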

[4] = test system: PA14 isogenic mutant ΔmvfR AT/P cells; assay: AT/P cell formation in ΔmvfR mutant (off-target); conditions: Pseudomonas aeruginosa, PA14, 24 h, read-out: AT/P cell formation, ΔmvfR + compound; PA14 about 100; single replicates (Figure 4b)
Procedure: Cells were grown in the presence of 10 μg mL^−1 meropenem, with or without 10 µM of the compounds for 24 h. Values were normalized to cells grown for 4 h in the absence of antibiotics and compounds. The ∆mvfR cells grown with antibiotics and vehicles were considered control, and the percentage values were calculated compared to control. c Biofilm formation of mutant ∆mvfR cells with or without compound. […] The number of biological replicates for each compound and strain is depicted in the graph. The error bars denote ±SEM.
The AT/P cell formation assay was performed according to the method previously described in Starkey et al., 2014 (persister cell assay). The over-day culture was incubated at 37 °C with shaking at 200 rpm until the culture OD600nm was 3.0. The culture was then diluted at 1:100 and grown in the same conditions for 4 h. After 4 h, 200 µL were collected, and serial dilutions were plated on LB agar plates for CFU quantification (as normalizers). The remainder of the culture was treated with meropenem to a final concentration of 100 × MIC (Minimum Inhibitory Concentration; 10 mg L^−1) and compounds at a final concentration of 10 µM. After 24 h, culture aliquots were 10-fold serially diluted in LB broth and plated on LB agar for CFU quantification. The AT/P fraction was determined as the normalizers (pre-antibiotic) ratio divided by the AT/P fraction (24 h post-antibiotic)[22].

[5] = test system: pyocyanin production in PA14; assay: Pyocyanin production assay; conditions: Pseudomonas aeruginosa
[6] = test system: mvfR mutant constitutively expressing the pqsABCDE operon; assay type: cell-based; conditions: Pseudomonas aeruginosa, control about 100, single replicates (Figure 4a)
[7] = test system: MvfR-regulated small molecules in PA14; assay: Production of HAQs, 2-AA, DHQ and AA in PA14 cultures (LC-MS); conditions: Pseudomonas aeruginosa
PA14 AT/P cells = assay: AT/P cells formation assay in PA14; assay type: cell-based, Pseudomonas aeruginosa; conditions: Pseudomonas aeruginosa, PA14, 24 h, read-out: inhibition of AT/P cells formation
ΔmvfR biofilm = assay: Biofilm formation of ΔmvfR mutant (off-target); conditions: Pseudomonas aeruginosa, PA14, 24 h, read-out: Biofilm formation, ΔmvfR + compound; PA14 about 100; single replicates (Figure 4c)
Procedure: Biofilm was grown in the 96-well microtiter plate at 37 °C for 24 h containing M63 minimal media in the presence of 10 µM of the compounds or vehicle. The biofilm grown with the vehicle was considered as a control. The percentage value was calculated in comparison to the PA14 control. a–c Data represent at least n = 3, each dot on the graph represents one biological replicate. The number of biological replicates for each compound and strain is depicted in the graph. The error bars denote ±SEM.
The overnight grown starter culture was diluted 1:1000 in 5 mL LB media in a glass tube and was incubated at 37 °C and 200 rpm in an incubator shaker until the culture reached an OD600nm 3.0. The culture was then diluted at 1:100 in M63 minimal media supplemented with 0.2% glucose, 0.5% Casamino Acids, and 1 mM MgSO4. Initiation of the Biofilm formation was performed in the 96 well plates; 200 µL of diluted culture was added in the wells with (10 µM) or without compounds. The cultures were allowed to grow at 37 °C in static conditions for 24 hours. Thereafter, planktonic culture was removed from the wells, and wells were washed three times with distilled water (DW). Biofilm was stained with 0.1% crystal violet and incubated for 15 min at room temperature (RT). Access dye was removed from the wells and washed off three times with DW, and 200 µL ethanol: acetone (80:20) was added to the wells. The plate was incubated for 30 min at RT, and the OD was measured by spectrophotometry at 570 nm in the infinite F200 plate reader using the Magellan software (Tecan, Switzerland). Percent biofilm formation was calculated in comparison to PA14 culture that was grown in the absence of compounds.

CC(C(=O)Nc1ccc(C#N)cc1)C(=O)Nc1ccc(C#N)cc1 [D80]
Response Unit (RU) (MvfR protein (MvfRC87); Concentration 1.00E-05 M): 35.4 RU | Response Unit (RU) (MvfR protein (MvfRC87); Concentration 1.00E-06 M): 22.9 RU | Response Unit (RU) (MvfR protein (MvfRC87); Concentration 1.00E-07 M): 7 RU | Response Unit (RU) (MvfR protein (MvfRC87); Concentration 1.00E-08 M): 0.6 RU | Response Unit (RU) (MvfR protein (MvfRC87); Concentration 3.16E-06 M): 30.6 RU | Response Unit (RU) (MvfR protein (MvfRC87); Concentration 3.16E-07 M): 13.9 RU | Response Unit (RU) (MvfR protein (MvfRC87); Concentration 3.16E-08 M): 2.6 RU | activity at 50 µM ([1]; PA14, read-out: % Production pqsA-GFP): 10% | IC50 ([1]; PA14, read-out: IC50 pqsA-GFP expression, PA14, 13 concentrations): 10.6 µM | activity at 10 µM ([2]; read-out: Pyocyanin production relative to Control, clinical isolate LGR-4325): 40% | activity at 10 µM ([2]; read-out: Pyocyanin production relative to Control, clinical isolate LGR-4326): 39.5% | activity at 10 µM ([2]; read-out: Pyocyanin production relative to Control, clinical isolate LGR-4327): 32.3% | activity at 10 µM ([2]; read-out: Pyocyanin production relative to Control, clinical isolate LGR-4328): 30.6% | activity at 10 µM ([2]; read-out: Pyocyanin production relative to Control, clinical isolate LGR-4330): 15.3% | activity at 10 µM ([2]; read-out: Pyocyanin production relative to Control, clinical isolate LGR-4331 (first section, r117)): 41.5% | activity at 10 µM ([2]; read-out: Pyocyanin production relative to Control, clinical isolate LGR-4331 (second section, r140)): 37.9% | activity at 10 µM ([2]; read-out: Pyocyanin production relative to Control, clinical isolate LGR-4333): 65.7% | activity at 10 µM ([2]; read-out: Pyocyanin production relative to Control, clinical isolate LGR-4343): 62% | activity at 10 µM ([2]; read-out: Pyocyanin production relative to Control, clinical isolate LGR-4344): 31.8% | activity at 10 µM ([2]; read-out: Pyocyanin production relative to Control, clinical isolate LGR-4348): 39.5% | activity at 10 µM ([2]; read-out: Pyocyanin production relative to Control, clinical isolate LGR-4356): 32.3% | activity at 10 µM ([2]; read-out: Pyocyanin production relative to Control, clinical isolate LGR-4362): 30.6% | activity at 10 µM ([2]; read-out: Pyocyanin production relative to Control, clinical isolate LGR-4363): 15.3% | activity at 10 µM ([2]; read-out: Pyocyanin production relative to Control, clinical isolate LGR-4364 (first section, r326)): 41.5% | activity at 10 µM ([2]; read-out: Pyocyanin production relative to Control, clinical isolate LGR-4364 (second section, r349)): 37.9% | solubility at 4 h [3]: 2.9e-05 M (≈ 9.23 µg/mL) | activity at 10 µM [4]: 36% | activity at 50 µM ([5]; PA14, 18 h, read-out: % Production Pyocyanin): 7% | IC50 ([5]; PA14, read-out: IC50 pyocyanin production): 3.6 µM | activity at 50 µM ([6]; read-out: 2-AA, ΔmvfR-pqsABCD strain): 101% | activity at 50 µM ([6]; read-out: DHQ, ΔmvfR-pqsABCD strain): 101% | activity at 50 µM ([6]; read-out: HHQ, ΔmvfR-pqsABCD strain): 96.1% | activity at 50 µM ([6]; read-out: HQNO, ΔmvfR-pqsABCD strain): 86.4% | activity at 50 µM ([6]; read-out: PQS, ΔmvfR-pqsABCD strain): 99.4% | activity at 50 µM ([7]; PA14, read-out: % Production 2-AA): 16% | activity at 50 µM ([7]; PA14, read-out: % Production AA): 832% | activity at 50 µM ([7]; PA14, read-out: % Production DHQ): 20% | activity at 50 µM ([7]; PA14, read-out: % Production HHQ): 8% | activity at 50 µM ([7]; PA14, read-out: % Production HQNO): 64% | activity at 50 µM ([7]; PA14, read-out: % Production PQS): 20% | inhibition at 50 µM ([7]; PA14, read-out: HHQ production inhibition): 89 to 99% | inhibition at 50 µM ([7]; PA14, read-out: HQNO production inhibition): 40 to 92% | inhibition at 50 µM ([7]; PA14, read-out: PQS production inhibition): 76 to 97% | inhibition at 50 µM ([7]; PA14, read-out: inhibition of 2-AA production): 82 to 95% | inhibition at 50 µM ([7]; PA14, read-out: inhibition of DHQ production): 82 to 96% | inhibition at 10 µM (PA14 AT/P cells): ≥ 51% | activity at 10 µM (ΔmvfR biofilm): 42.3%
